We go through 29 compounds from PubChem BioAssay AID1406 (The Scripps Research Institute Molecular Screening Center, 2008).

Activity calls are given as the source filed them.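 How the source made its calls: active means STAT1 reporter activators whose half-maximal activating concentration EC50 is 10 µM or lower; inactive means EC50 above 10 µM or no activation.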

The test system of the experiment is NIH 3T3 STAT1 luciferase reporter, luminescence. The experiment in a line: STAT1 transcription enhancement, IFN-gamma induced – cell-based, NIH 3T3, luciferase luminescence, counter-screen for STAT3 activator project, dose response (AID 1406). The conditions noted are these: cells stimulated with IFN-gamma at EC80.
As to `CCC(=O)NCCSc1c[nH]c2ccccc12`, the EC50 is > 55.7 µM (inactive).

On to `Nc1nnc(Cc2c[nH]c3ccccc23)s1`, for which the EC50 is > 55.7 µM (inactive).

As for `CCOc1cc(-c2ccc(N)c(OCC)c2)ccc1N`, the EC50 is > 55.7 µM (inactive).

With `O=C(COc1ccccc1Cl)Nc1cc(Cl)ccc1O`, the EC50 is > 55.7 µM (inactive).

As for `COC(=O)C(NC=O)C(O)(Cc1ccccc1)C(F)(F)F` (centres undefined), the EC50 was > 55.7 µM (inactive).

On to `CCN1CCN(C(=O)c2cc3c(-c4ccc(Cl)cc4)nn(C)c3s2)CC1`, for which the EC50 was > 55.7 µM (inactive).

With `Cc1[nH]n(-c2ccccc2)c(=O)c1/C=C1/C=c2ccccc2=N1`, the EC50 was > 55.7 µM (inactive).

Take `CC(OC(=O)c1cccnc1SCc1cc(=O)n2ccccc2n1)c1ccccn1` (centres undefined): the EC50 is > 55.7 µM (inactive).

Take `COc1ccc(Br)cc1C(=O)Nc1cccc(C)c1`: the EC50 was > 55.7 µM (inactive).

Regarding `COc1ccc(-c2nc3scc(-c4ccccc4)n3n2)cc1`, the EC50 is > 55.7 µM (inactive).

In the case of `Cc1cc(C)n(-c2nnc3n2N=C(c2c[nH]c4ccccc24)CS3)n1`, the EC50 is > 55.7 µM (inactive).

In the case of `NNc1ncnc2sc3c(c12)CCC3`, the EC50 is > 55.7 µM (inactive).

Turning to `Cn1nc(-c2ccc(Cl)cc2)c2cc(C(=O)NCCN3CCOCC3)sc21`, the EC50 is > 55.7 µM (inactive).

Take `CC(=O)NCCC(=O)N1CCc2c([nH]c3ccccc23)C1c1cccc(C)c1` (centres undefined): the EC50 is > 55.7 µM (inactive).

For the compound `N#Cc1cn(CC(=O)O)c2ccccc12`, the EC50 was > 55.7 µM (inactive).

With `CC1=C(C)C(=O)C(N2CCOCC2)=CC1=O`, the EC50 was > 55.7 µM (inactive).

Turning to `Cc1nnc(NC(=O)c2oc3c(ccc4ccccc43)c2C)s1`, the EC50 is > 55.7 µM (inactive).

For the compound `c1ccc2c(c1)CCCN2c1nc2ccccc2n2cnnc12`, the EC50 was > 55.7 µM (inactive).

In the case of `COc1ccc(Cl)cc1NC(=O)c1oc(C)nc1C`, the EC50 is > 55.7 µM (inactive).

As to `CCOC(=O)C1(CC2CCCCO2)CCN(Cc2cc3ccccc3[nH]2)CC1` (centres undefined), the EC50 was > 55.7 µM (inactive).

With `COc1ccc(Cl)cc1NC(=O)Nc1ccc(Br)cn1`, the EC50 was > 55.7 µM (inactive).

Consider `CN(Cc1ccccc1)Cc1c[nH]c2ccccc12`, for which the EC50 was > 55.7 µM (inactive).

In the case of `O=C(O)C(Cc1c[nH]c2ccccc12)N1Cc2ccccc2C1=O` (centres undefined), the EC50 is > 55.7 µM (inactive).

Consider `CC(C)CC(=O)NC(=S)Nc1nc(-c2ccccc2)cs1`, for which the EC50 was > 55.7 µM (inactive).

Take `CCCc1nnc(N2C(=O)c3cccc4cccc(c34)C2=O)s1`: the EC50 is > 55.7 µM (inactive).

As to `COCc1cc(=O)n2c(-c3ccccc3OC)n[nH]c2n1`, the EC50 was > 55.7 µM (inactive).

Take `O=C(CCN1CCOCC1)N1CCc2c([nH]c3ccccc23)C1c1cccc(Cl)c1` (centres undefined): the EC50 is > 55.7 µM (inactive).

For `NC(=O)CSc1c[nH]c2ccccc12`, the EC50 is > 55.7 µM (inactive).

As for `CC(=O)NCCC(=O)N1CCc2c([nH]c3ccccc23)C1c1cccc(Cl)c1` (centres undefined), the EC50 is > 55.7 µM (inactive).
